This is an account of results in ChEMBL document CHEMBL3351704, “Synthesis and biological evaluation of 4-oxoquinoline-3-carboxamides derivatives as potent anti-fibrosis agents” (Bioorg Med Chem Lett, 2014).

Experiment [1] concerns NRK-49F. The experiment is described as follows: Inhibition of TGF-beta1-induced total collagen accumulation in rat NRK-49F cells at 10 uM. The format is functional.
In a further experiment the test system is RAW264.7. The experiment is described as follows: Inhibition of LPS-induced TNFalpha production in mouse RAW264.7 cells 10 uM. The format is functional.
Experiment [2] has as its system NRK-49F. The experiment is described as follows: Inhibition of TGF-beta1-induced total collagen accumulation in rat NRK-49F cells. The format is functional, cell-based.
Experiment [3] relates to NRK-49F. The experiment is described as follows: Inhibition of TGF-beta1-induced total collagen accumulation in rat NRK-49F cells at 3 uM by picro-sirius red staining method. The experiment is classed as functional, cell-based.
Experiment [4] deals with Mus musculus. The experiment is described as follows: Anti-fibrotic activity in mouse bleomycin-induced lung fibrosis model assessed as reduction in inflammatory infiltrate level at 20 mg/kg/day, ip before bleomycin injection by H and E staining. The format is functional, organism-based.
The subject of experiment [5] is Mus musculus. The experiment is described as follows: Anti-fibrotic activity in mouse bleomycin-induced lung fibrosis model assessed as reduction in lung injury at 20 mg/kg/day, ip before bleomycin injection by H and E staining. The experiment is classed as functional, organism-based.
Experiment [6] deals with Mus musculus. The experiment is described as follows: Anti-fibrotic activity in mouse bleomycin-induced lung fibrosis model assessed as reduction of lung collagen deposition at 20 mg/kg/day, ip before bleomycin injection by H and E staining. The format is functional, organism-based.
Experiment [7] concerns Mus musculus. The experiment is described as follows: Anti-fibrotic activity in mouse bleomycin-induced lung fibrosis model assessed as cumulative proportion of survival at 20 mg/kg/day, ip before bleomycin injection measured on day 28. The experiment is classed as functional. To be noted: 672 h, route intraperitoneal.
The test system of experiment [8] is Mus musculus. The experiment is described as follows: Anti-fibrotic activity in mouse bleomycin-induced lung fibrosis model assessed as slowing of body weight loss at 20 mg/kg/day, ip before bleomycin injection measured on day 28. The experiment is classed as functional, organism-based.
In experiment [9] the test system is Mus musculus. The experiment in a line: Anti-fibrotic activity in mouse bleomycin-induced lung fibrosis model assessed as reduction in leukocytes in bronchoalveolar lavage fluid at 20 mg/kg/day, ip before bleomycin injection. Particulars: route intraperitoneal. The format is functional.
Experiment [10] concerns Mus musculus. The experiment in a line: Anti-fibrotic activity in mouse bleomycin-induced lung fibrosis model assessed as reduction in lymphocytes in bronchoalveolar lavage fluid at 20 mg/kg/day, ip before bleomycin injection. The format is functional. Particulars: route intraperitoneal.
Experiment [11] has as its system Mus musculus. The experiment is described as follows: Anti-fibrotic activity in mouse bleomycin-induced lung fibrosis model assessed as reduction in neutrophils in bronchoalveolar lavage fluid at 20 mg/kg/day, ip before bleomycin injection. The format is functional. To be noted: route intraperitoneal.
Experiment [12] has as its system Mus musculus. The experiment in a line: Anti-fibrotic activity in mouse bleomycin-induced lung fibrosis model assessed as reduction in hydroxyproline level at 20 mg/kg/day, ip before bleomycin injection. The format is functional.
Experiment [13] relates to NRK-49F. The experiment in a line: Inhibition of TGF-beta1-induced total collagen accumulation in rat NRK-49F cells at 5 uM by picro-sirius red staining method. The format is functional, cell-based.

pIC50: −log10 of the molar value. Activity calls are given as the source filed them. The calls are words filed in the database; no cut-off is given here.

In the experiment on NRK-49F [1], `CC(C)(C)c1ccc2[nH]cc(C(=O)Nc3ccc(C(C)(C)C)c([N+](=O)[O-])c3)c(=O)c2c1` had an inhibition at 10 µM of 75.7%. In the experiment on RAW264.7, the “inhibition (INH)” value is 47.7%.
`CC(C)(C)c1ccc2[nH]cc(C(=O)Nc3ccc(Cl)cc3)c(=O)c2c1` yielded an inhibition at 10 µM with NRK-49F [1] of 27.2%.
The same measure, in the same setting: in the case of `CN1CCN(CCn2cc(C(=O)Nc3ccc(C(C)(C)C)cc3)c(=O)c3cc(C(C)(C)C)ccc32)CC1` it was 46.6%; in that of `CC(C)(C)c1ccc(NC(=O)c2cn(CCCl)c3ccc(C(C)(C)C)cc3c2=O)cc1`, 35.8%; in that of `CC(C)(C)c1ccc(NC(=O)c2cn(CCCN3CCOCC3)c3ccc(C(C)(C)C)cc3c2=O)cc1`, 30.2%.
As to `CC(C)(C)c1ccc2[nH]cc(C(=O)Nc3ccc(C(C)(C)C)c(N)c3)c(=O)c2c1`, 10 µM produced 67.9% inhibition with NRK-49F [1]. In addition, the “inhibition (INH)” value in the experiment on RAW264.7 turned out to be 71.3%. Moreover, the pIC50 in the experiment on NRK-49F [2] was 5.39. Besides, in the experiment on NRK-49F [3], the inhibition result is “Active”.
`COc1ccc(NC(=O)c2c[nH]c3ccc(C(C)(C)C)cc3c2=O)cc1` showed an inhibition at 10 µM in the experiment with NRK-49F [1] of 23.5%.
The same measure, in the same setting: in the case of `COc1ccc(NC(=O)c2c[nH]c3ccc(C(C)(C)C)cc3c2=O)cc1OC` it was 32.6%; in that of `CC(C)(C)c1ccc2[nH]cc(C(=O)Nc3ccc(F)cc3)c(=O)c2c1`, 23.5%; in that of `CCn1cc(C(=O)Nc2ccc(C(C)(C)C)cc2)c(=O)c2cc(C(C)(C)C)ccc21`, 34.3%.
The same measure, in the same setting: in the case of `CC(C)(C)c1ccc2[nH]cc(C(=O)Nc3ccccc3C(C)(C)C)c(=O)c2c1` it was 54.3%.
Same read-out and setting: in the case of `CCc1ccc(NC(=O)c2c[nH]c3ccc(C(C)(C)C)cc3c2=O)cc1` it was 19.4%.
Turning to `COc1ccccc1NC(=O)c1c[nH]c2ccc(C(C)(C)C)cc2c1=O`, in the experiment on NRK-49F [1], the inhibition at 10 µM is 47.9%.
The same measure, in the same setting: for `CC(C)(C)c1ccc2[nH]cc(C(=O)Nc3cccc(Cl)c3)c(=O)c2c1` the value was 30.5%.
On the same count and under the same terms, for `Cc1ccc2[nH]cc(C(=O)Nc3cc(O)c(C(C)(C)C)cc3C(C)(C)C)c(=O)c2c1` the value was 49.9%; for `CN1CCN(CCCn2cc(C(=O)Nc3ccc(C(C)(C)C)cc3)c(=O)c3cc(C(C)(C)C)ccc32)CC1`, 52.1%.
With `CC(C)(C)c1ccc(NC(=O)c2cn(CCN3CCCCC3)c3ccc(C(C)(C)C)cc3c2=O)cc1`, the inhibition at 10 µM with NRK-49F [1] was 30.1%.
Molecule `CC(C)(C)c1ccc2[nH]cc(C(=O)Nc3cc(O)c(C(C)(C)C)cc3C(C)(C)C)c(=O)c2c1` registered an inhibition at 10 µM in the experiment with NRK-49F [1] of 73.8%. For the same molecule, the “inhibition (INH)” value in the experiment on RAW264.7 is on record as 45.7%.
Turning to `CC(C)(C)c1cccc(NC(=O)c2c[nH]c3ccc(C(C)(C)C)cc3c2=O)c1`, the inhibition at 10 µM in the experiment on NRK-49F [1] was found to be 44.8%.
Same read-out and setting: for `CC(C)(C)c1ccc(NC(=O)c2cn(Cc3ccccc3)c3ccc(C(C)(C)C)cc3c2=O)cc1` the value was 9.1%.
Molecule `CC(C)(C)c1cc(C(C)(C)C)c(NC(=O)c2c[nH]c3ccccc3c2=O)cc1O` [IVACAFTOR] showed an inhibition at 10 µM in the experiment with NRK-49F [1] of 64.7%. For the same molecule, the “inhibition (INH)” value in the experiment with RAW264.7 is 63.2%. This molecule also gave a pIC50 with NRK-49F [2] of 5.40. The inhibition result in the experiment with Mus musculus [4], with Mus musculus [5] and in the experiment on Mus musculus [6] was “inactive” each time.
In the experiment with NRK-49F [1], `COc1ccc2[nH]cc(C(=O)Nc3cc(O)c(C(C)(C)C)cc3C(C)(C)C)c(=O)c2c1` registered an inhibition at 10 µM of 53.1%.
With `CC(C)(C)c1ccc(NC(=O)c2c[nH]c3ccc(C(C)(C)C)cc3c2=O)cc1`, the inhibition at 10 µM in the experiment on NRK-49F [1] was found to be 81%. Also, in the experiment on RAW264.7, the “inhibition (INH)” value is listed as 61.6%. In addition, the pIC50 in the experiment with NRK-49F [2] is 5.70. Further, the inhibition entry with NRK-49F [3] and with Mus musculus [12] was “Active” in each case. Also, the survival at 20 mg/kg/day in the experiment with Mus musculus [7] turned out to be 83.3%. Also, in the experiment on Mus musculus [8], the outcome was Active. Also, the inhibition in vivo at 20 mg/kg/day in the experiment with Mus musculus [9] was 40.3%; in the experiment with Mus musculus [10] it was 33.6%; in the experiment on Mus musculus [11] it was 39.7%. Besides, the inhibition entry in the experiment on Mus musculus [4], in the experiment on Mus musculus [5] and in the experiment with Mus musculus [6] was “inactive” throughout.
With `CC(C)(C)c1cc(C(C)(C)C)c(NC(=O)c2c[nH]c3ccc(F)cc3c2=O)cc1O`, 10 µM produced 51.6% inhibition in the experiment on NRK-49F [1].
Same read-out and setting: for `CC(C)(C)c1ccc(NC(=O)c2cn(CCN3CCCC3)c3ccc(C(C)(C)C)cc3c2=O)cc1` the value was 44.8%.
In the experiment on NRK-49F [1], `CC(C)(C)c1ccc(NC(=O)c2cn(CCN3CCOCC3)c3ccc(C(C)(C)C)cc3c2=O)cc1` showed an inhibition at 10 µM of 71.1%. Moreover, the “inhibition (INH)” value with RAW264.7 was 69.5%. Also, the pIC50 in the experiment with NRK-49F [2] is 5.64. Also, the inhibition result in the experiment on NRK-49F [3] and in the experiment with NRK-49F [13] was “Active” throughout.
`Cc1ccc(NC(=O)c2c[nH]c3ccc(C(C)(C)C)cc3c2=O)cc1` had an inhibition at 10 µM in the experiment on NRK-49F [1] of 28.9%.
Take `COc1cc(NC(=O)c2c[nH]c3ccc(C(C)(C)C)cc3c2=O)cc(OC)c1OC`: the inhibition at 10 µM with NRK-49F [1] turned out to be 77.1%. In the experiment on RAW264.7, the “inhibition (INH)” value is on record as 70.8%. The pIC50 in the experiment on NRK-49F [2] was 5.60. In addition, the inhibition entry with NRK-49F [3], with NRK-49F [13], in the experiment with Mus musculus [4], in the experiment on Mus musculus [5] and in the experiment with Mus musculus [6] was “Active” in each case. Also, the survival at 20 mg/kg/day with Mus musculus [7] came to 72.2%. Also, in the experiment with Mus musculus [8], the result was Active. In addition, the inhibition in vivo at 20 mg/kg/day in the experiment with Mus musculus [9] turned out to be 54.8%; in the experiment with Mus musculus [10], 15.8%; in the experiment on Mus musculus [11], 57.7%; in the experiment with Mus musculus [12] (route intraperitoneal), 52.4%.
`CCc1ccc2[nH]cc(C(=O)Nc3cc(O)c(C(C)(C)C)cc3C(C)(C)C)c(=O)c2c1` displayed an inhibition at 10 µM in the experiment with NRK-49F [1] of 55.9%.
Regarding `CCCCn1cc(C(=O)Nc2ccc(C(C)(C)C)cc2)c(=O)c2cc(C(C)(C)C)ccc21`, testing at 10 µM in the experiment with NRK-49F [1] gave an inhibition of 16.9%.

As a reminder, the inhibition is the change of the read-out against control, counted positive when it falls. One may read the pIC50 as the IC50 on a negative log10 scale, so that one unit is a factor of ten. Read a low pIC50 as a high IC50. The inhibition in vivo is the change of the read-out against control, counted positive when it falls.
